{"source": "patent US20240285612A1", "about": "“COMPOSITIONS COMPRISING AN AGONIST OF 5-HYDROXYTRYPTAMINE (5-HT) RECEPTOR SUBTYPE 3” (LDN Pharma Limited, priority 2021, published 2024)", "key": {"[1]": {"test_system": "5-HT receptor 3A (HTR3A), transcript variant 2 mRNA", "assay": "Microarray gene expression of HTR3A transcript variant 2 mRNA in CD3+ lymphocytes treated 4 h", "format": "cell-based, human", "procedure": "(§1) CD3+ lymphocytes were isolated from the blood of haematologically normal volunteers. Cells placed into […] flasks at a concentration of 1×10^6/ml, and left to equilibrate in an incubator with a humidified atmosphere and 5% CO2 in air at 37° C. […] RNA extraction was performed using Trizol according to standard procedures, before being processed for microarray analysis according to the standard methodologies. Briefly, equal amounts of biotinylated cRNA was hybridised to the Illumina human HT12-v3 arrays for 18 h and subsequently processed according to manufacturer's instructions before scanning on an Illumina BeadArray Reader. The image data were processed using default values in GenomeStudio v2009.1 with imputation of missing data, before loading onto GeneSpring v9.0 for data normalisation and filtering. Data analyses were performed using Excel software, and the ratio of gene expression signals in treated vs. untreated calculated."}, "[2]": {"test_system": "5-HT receptor 3A (HTR3A), transcript variant 1 mRNA", "assay": "Microarray gene expression of HTR3A transcript variant 1 mRNA in CD3+ lymphocytes treated 4 h", "format": "cell-based, human", "conditions": "probe ILMN_1681492, HTR3A transcript variant 1, low dose naltrexone 10 nM", "procedure": "as §1"}}, "data": [{"smiles": "O=C1CC[C@@]2(O)[C@H]3Cc4ccc(O)c5c4[C@@]2(CCN3CC2CC2)[C@H]1O5", "note": "[NTX, morphinan-6-one, 17-(cyclopropylmethyl)-4,5-epoxy-3,14-dihydroxy-(5a)]", "values": [{"measurement": "levels of mRNA for one or more of 5-HT3 receptor proteins", "setting": "[1]; both high dose (10 uM) and low dose (10 nM) naltrexone, result in words", "value": "selectively increase the levels of mRNA"}, {"measurement": "gene expression signal LDN", "setting": "[1]; probe ILMN_2371079, HTR3A transcript variant 2, low dose naltrexone 10 nM, 4 h, CD3+ lymphocytes", "value": 124.70}, {"measurement": "gene expression signal NTX", "setting": "[1]; probe ILMN_2371079, HTR3A transcript variant 2, naltrexone 10 uM, 4 h, CD3+ lymphocytes", "value": 151.75}, {"measurement": "gene expression signal LDN", "setting": "[2]", "value": 94.00}]}]}
